Laboratory results as given in publication PMC10600239, “Selective MCL-1 inhibitor ABBV-467 is efficacious in tumor models but is associated with cardiac troponin increases in patients” (Communications Medicine, 2023).
Several values for one entry are separate records, joined by “and”; a condition that tells them apart may be missing. Equal entries are not always repeated. Where two headings read alike, the source gives them in different places.

Legend:
H929 cells [1] = experiment: Caspase-3/7 activation and viability (DRAQ7) over time by Incucyte; assay type: cell-based, human
Procedure: (§1) Fig. 2 Apoptosis induced by ABBV-467 is mechanism based and induces cell death in MCL-1-dependent cell lines after short target engagement periods. H929 cells were treated with ABBV-467 in the presence or absence of the pan-caspase inhibitor z-VAD-fmk (50 µM) and the impact on caspase-3/7 activation (a), mitochondrial membrane potential (ΔΨm; b), and apoptosis (c) determined. Alternatively, BAK-deficient SKBR3 cells were treated with ABBV-467 for 24 h and the impact on cell viability compared with the parental cell line, determined by CellTiter-Glo. Inset depicts a western blot of BAK and BAX expression in SKBR3 cell variants using GAPDH as a loading control. Each of the 3 proteins were probed on separate blots (d). Data in (a–d) are presented as the mean ± standard error of the mean. H929 and AMO-1 cells were treated with ABBV-467 at the indicated concentrations and the impact on caspase-3/7 activation and viability (DRAQ7-positive) cells determined over time by Incucyte®. Data are presented as the mean ± standard deviation (e). H929 or AMO-1 cells were cultured in media containing 10% human serum and treated with ABBV-467 for the indicated contact times. Cells were subsequently washed 3 times with drug-free media and incubated in drug-free media for the remainder of the 24-h treatment period at 37 °C before cell viability was determined by CellTiter-Glo. Mean EC50 and EC90 values were determined from the resulting dose-response curves from at least 3 independent experiments, each assessed in quadruplicate, and depict the mean ± standard error of the mean. Presented ABBV-467 dose-response curves in H929 and AMO-1 cells were compiled from at least 3 independent experiments (f).

H929 cells [2] = experiment: In vitro cell viability assay (CellTiter-Glo); assay type: cell-based, human
Procedure: All cell lines were grown and treated in RPMI 1640 or Dulbecco’s modified Eagle medium (Sigma, St. Louis, MO) supplemented with 10% fetal bovine serum (Gibco) or 10% human serum (Sigma) and maintained in a humidified incubator at 5% CO2 and 37 °C. DLD-1, MV4-11, NCI-H929 (all ATCC, Manassas, VA, USA) and AMO-1 (DSMZ, Braunschweig, Germany) cells were plated 4000 cells per well in 384-well tissue culture plates and treated with compounds of interest for 24 h at 37 °C, 5% CO2 humidified incubator. Each concentration was tested in duplicate at least 3 separate times. Adherent cells were allowed to adhere overnight prior to treatment. Alternatively, AMO-1 or NCI-H929 cells were treated with ABBV-467 for the indicated contact times (1–24 h) at 37 °C in a 5% CO2 humidified incubator and washed 3 times with compound-free media prior to incubation for the remainder of a 24-h treatment period. Cell viability was subsequently determined using CellTiter-Glo (Promega, Madison, WI, USA) according to the manufacturer’s instructions.
For in vitro viability assays, mean EC50 and EC90 values were determined from the resulting dose-response curves from at least 3 independent experiments, and depict the mean ± standard error of the mean.
as §1

OCI-AML2 xenografts = experiment: OCI-AML2 xenograft efficacy (tumor volume, body weight); conditions: for tumor response: for 20 days post-treatment
Procedure: All animal studies were conducted in accordance with the guidelines approved by the Institutional Animal Care and Use Committees of AbbVie. The research protocol was approved by In Vivo Pharmacology at AbbVie prior to study initiation but was not publicly registered or disclosed. Female C.B-17 SCID-beige mice (AMO-1, OPM-2, NCI-H929, and OCI-AML2 xenografts) and female NSG mice (MV4-11-Red.Fluc systemic) were purchased from Charles River Laboratories (Wilmington, MA). Animals were housed in a light cycle-controlled room with HEPA filtration at 22 °C. Animals had nesting and climbing cage topper as the primary environmental enrichment. Animals were inoculated subcutaneously in the right flank with 5 × 10^6 (AMO-1, OPM-2, NCI-H929, and OCI-AML2) or intravenous (IV) with 5 × 10^6 (MV4-11-Red.Fluc). The inoculation volume (0.2 mL) comprised a 50:50 mixture of cells in growth media and Matrigel (BD Biosciences) for subcutaneous injections and 100% phosphate-buffered saline for IV administration. […] Electronic calipers were used to measure the length and width of each tumor 2 to 3 times per week. Tumor volume was estimated by applying the following equation: volume = length × width^2/2. All groups remained blinded during measurements and dosing; only veterinary staff were aware of group identity. When tumors reached approximately 200 mm^3, mice were randomized by match and distributed into treatment and control groups. All xenograft trials were conducted using 5 to 10 mice per group, and all mice were ear tagged and monitored individually throughout the studies.
For combination studies, all compounds were administered within 30 min of each other.
The tumor growth delay (TGD) percentage was determined as the percentage increase of the median time period for the treatment group to reach an arbitrary tumor volume of 1000 mm^3 relative to the vehicle control group. […] A power analysis was conducted using historical data to determine the number of animals required to yield significance of 0.05 at a 30% difference. There were no animals excluded. Data from experiments in vivo were analyzed using the student’s t-test for TGI values and the Mann–Whitney U test for TGD using Excel and GraphPad Prism. Fisher’s exact test was used to probe significance of differences in response frequency.

[3] = combined with venetoclax and 5-azacitidine

For `Cc1c(Cl)c2c(Cl)c(C)c1-c1c(-c3ccc(F)cc3)sc3ncnc(c13)O[C@@H](C(=O)O)Cc1cc(ccc1OCc1ccnc(-c3ccc(OC[C@H]4COCCO4)cc3)n1)OC[C@@H](CN1CCN(C)CC1)O2` [ABBV-467], the “Caspase-3/-7 Activation” value (H929 cells [1]; ABBV-467 10 nM, 5 hours) was 1650.46, the “Caspase-3/-7 Activation” value (H929 cells [1]; ABBV-467 10 nM, 6 hours) was 1813.36 and the “Caspase-3/-7 Activation” value (H929 cells [1]; ABBV-467 10 nM, 7 hours) was 2014.88. The “Caspase-3/-7 Activation” value (H929 cells [1]; ABBV-467 10 nM, 8 hours) was 2144.69, the “Caspase-3/-7 Activation” value (H929 cells [1]; ABBV-467 10 nM, 9 hours) was 2203.21 and the “Caspase-3/-7 Activation” value (H929 cells [1]; ABBV-467 10 nM, 10 hours) was 2258.19. For the same compound, the “Caspase-3/-7 Activation” value (H929 cells [1]; ABBV-467 10 nM, 11 hours) was 2283.58, the “Caspase-3/-7 Activation” value (H929 cells [1]; ABBV-467 10 nM, 12 hours) was 2310.22 and the “Caspase-3/-7 Activation” value (H929 cells [1]; ABBV-467 10 nM, 13 hours) was 2302.82. The “Caspase-3/-7 Activation” value (H929 cells [1]; ABBV-467 10 nM, 14 hours) was 2302.28, the “Caspase-3/-7 Activation” value (H929 cells [1]; ABBV-467 100 nM, 0 hours) was 208.608 and the “Caspase-3/-7 Activation” value (H929 cells [1]; ABBV-467 100 nM, 1 hours) was 451.845. For the same compound, the “Caspase-3/-7 Activation” value (H929 cells [1]; ABBV-467 100 nM, 2 hours) was 1550.74, the “Caspase-3/-7 Activation” value (H929 cells [1]; ABBV-467 100 nM, 3 hours) was 2054.45 and the “Caspase-3/-7 Activation” value (H929 cells [1]; ABBV-467 100 nM, 4 hours) was 2191.43. For the same compound, the “Caspase-3/-7 Activation” value (H929 cells [1]; ABBV-467 100 nM, 5 hours) was 2357.93, the “Caspase-3/-7 Activation” value (H929 cells [1]; ABBV-467 100 nM, 6 hours) was 2394.62 and the “Caspase-3/-7 Activation” value (H929 cells [1]; ABBV-467 100 nM, 7 hours) was 2491.07. The “Caspase-3/-7 Activation” value (H929 cells [1]; ABBV-467 100 nM, 8 hours) was 2431.58, the “Caspase-3/-7 Activation” value (H929 cells [1]; ABBV-467 100 nM, 9 hours) was 2418.59 and the “Caspase-3/-7 Activation” value (H929 cells [1]; ABBV-467 100 nM, 10 hours) was 2357.71. For the same compound, the “Caspase-3/-7 Activation” value (H929 cells [1]; ABBV-467 100 nM, 11 hours) was 2329.52, the “Caspase-3/-7 Activation” value (H929 cells [1]; ABBV-467 100 nM, 12 hours) was 2294.27 and the “Caspase-3/-7 Activation” value (H929 cells [1]; ABBV-467 100 nM, 13 hours) was 2277.8. The “Caspase-3/-7 Activation” value (H929 cells [1]; ABBV-467 100 nM, 14 hours) was 2211.71, the “Caspase-3/-7 Activation” value (H929 cells [1]; ABBV-467 100 nM, 15 hours) was 2210.67 and the EC50 (H929 cells [2]; Homo sapiens, NCI-H929, 10% human serum, contact time 1 hr, washout, viability at 24 h, read-out: H929 Mean EC50) was 84.5 nM. The EC50 (H929 cells [2]; Homo sapiens, NCI-H929, 10% human serum, contact time 2 hr, washout, viability at 24 h, read-out: H929 Mean EC50) was 61.8 nM, the EC90 (H929 cells [2]; Homo sapiens, NCI-H929, 10% human serum, contact time 2 hr, washout, viability at 24 h, read-out: H929 Mean EC90) was 236 nM and the EC50 (H929 cells [2]; Homo sapiens, NCI-H929, 10% human serum, contact time 4 hr, washout, viability at 24 h, read-out: H929 Mean EC50) was 18.9 nM. For the same compound, the EC50 (H929 cells [2]; Homo sapiens, NCI-H929, 10% human serum, contact time 6 hr, washout, viability at 24 h, read-out: H929 Mean EC50) was 11.7 nM, the EC90 (H929 cells [2]; Homo sapiens, NCI-H929, 10% human serum, contact time 6 hr, washout, viability at 24 h, read-out: H929 Mean EC90) was 108 nM and the EC50 (H929 cells [2]; Homo sapiens, NCI-H929, 24 h, 10% human serum, contact time 24 hr, read-out: H929 Mean EC50) was 1.5 nM. It also gave an EC90 (H929 cells [2]; Homo sapiens, NCI-H929, 24 h, 10% human serum, contact time 24 hr, read-out: H929 Mean EC90) of 5.6 nM, an EC50 (H929 cells [2]; Homo sapiens, NCI-H929, 24 h, read-out: H929 EC50 (nM, 10% FBS), 10% FBS, 24 h continuous treatment) of 0.4 nM and an EC50 (H929 cells [2]; Homo sapiens, NCI-H929, NCI-H929, arithmetic mean, read-out: Arithmetic Mean EC50 µM) of 0.468 nM. For the same compound, the EC90 (H929 cells [2]; Homo sapiens, NCI-H929, read-out: H929 Mean EC90, 10% human serum, contact time 1 hr, washout, viability at 24 h) was 458 nM, the EC90 (H929 cells [2]; Homo sapiens, NCI-H929, read-out: H929 Mean EC90, 10% human serum, contact time 4 hr, washout, viability at 24 h) was 133 nM and the EC50 (H929 cells [2]; NCI-H929, individual determinations, read-out: Individual EC50) was 0.595 nM and 0.693 nM and 0.692 nM and 0.364 nM and 0.531 nM and 0.29 nM and 0.314 nM and 0.373 nM and 0.366 nM and 0.36 nM and 0.313 nM and 0.717 nM and 0.472 nM. The EC50 (H929 cells [2]; read-out: H929 EC50 (nM, 10% FBS), 10% FBS, 24 h continuous treatment) was 0.47 nM, the TGD (OCI-AML2 xenografts; combined with venetoclax) was > 878% and the TGI (OCI-AML2 xenografts; combined with venetoclax) was 99%. The TGD (OCI-AML2 xenografts; [3]) was > 878%, the TGI (OCI-AML2 xenografts; [3]) was 99% and the “tumor response” value (OCI-AML2 xenografts; [3]) was “complete tumor regression in all tumors”. For the same compound, the “tumor response” value (OCI-AML2 xenografts; combined with venetoclax) was “complete tumor regression in all tumors”, the “animals remaining tumor free at 120 days post-inoculation” value (OCI-AML2 xenografts; doublet (with venetoclax)) was 62.5% and the “sensitivity of OCI-AML2 tumors” value (OCI-AML2 xenografts; in combination with 5-azacitidine) was “resistant”. For the same compound, the “sensitivity of OCI-AML2 tumors” value (OCI-AML2 xenografts; monotherapy) was “resistant” and the “animals remaining tumor free at 120 days post-inoculation” value (OCI-AML2 xenografts; triplet (with venetoclax and 5-azacitidine)) was 62.5%.
